Measurements: patent US5164189A, “Single layer transdermal drug administration system” (priority 1991, dated 1992)

How the values were obtained:
[1] = cited from earlier work
in vivo = conditions: rhesus monkey, iv, 0.05 mg/kg
Method: (§1) This solution was injected into the saphenous vein of each monkey at a dose of 1 mL/Kg of bodyweight.
(§2) The serum from each blood sample was separated from other blood components via centrifugation, and then stored at -20° C. until the analysis described in Example 1(f)(1) was performed.
(§3) In separate clean test tubes, 1.5 mL of serum standard (Example 1(d)), serum sample (Examples 1(d) and (e)) and blank (Example 1(d)) was separately buffered with 150 microliters of a 0.42 M phosphate buffer, pH 7.2.
(§4) Each serum sample was then extracted with 4.5 mL of chloroform containing 0.1 M Di (2-ethylhexyl) phosphate (DEHP). The chloroform layer was separated into clean screw cap test tubes and mixed with 375 microliters of a 0.5 M HCl solution.
(§5) The aqueous extracts were then separated by centrifugation and analyzed by the HPLC-Fluorescence procedure described directly below.
(§6) The HPLC system consisted of a Waters Model 590 (Millipore Corporation, Bedford, Mass.) solvent delivery system equipped with a Waters Model 710 B Wisp auto injector, a Zorbax CN column (Dupont, 6 micron particles, 25 cm×4.6 mm internal diameter), Kratos (Kratos Analytical Instruments)Model 970 fluorescence detector (excitation 225 nm and emission 280 nm), and the Ingrad Data Analysis system (G. D. Searle & Co.). […] The mobile phase was pumped at a flow rate of 1.0 mL/minute. The injection volume was 100 microliters. The sensitivity of the method was 2.0 ng/mL.
(§7) The coefficient of variation associated with low (10 ng/mL) and high (80 ng/mL) quality control standard solutions were 4.5 and 3.4 percent, respectively.

[2] = Intravenous albuterol pharmacokinetics in Rhesus monkeys; conditions: 0.05 mg/kg
Method: as §1, §2, §3, §4, §5, §6, §7

## CC(C)(C)NCC(O)c1ccc(O)c(CO)c1 (centres unmarked) [albuterol]
[1]; human
  Apparent volume of distribution in humans: 2.2 L/kg
[1]; oral, extensive first pass metabolism, 'as low as'
  Oral bioavailability: ≥ 10%
In vivo
  AUC: 84.2 ng·h/mL
[2]; 50 mcg/Kg IV, Rhesus monkeys, n=4, mean
  Apparent volume of distribution: 1.9359 L/kg
[2]; rhesus monkey, serum, iv
  Vd: 1.94 ± 0.0372 L/kg
